Laboratory results: patent US5691362A, “Substituted benzene-fused hetero- and carbocyclics as nuerokinin antagonists” (Schering-Plough Corporation, priority 1996, dated 1997)
pKi: −log10 of the molar value. Read-outs that look alike come from different tables or passages of the source.

How the values were obtained:
[1] = target: T1, human neurokinin 2 (NK2) receptor (Homo sapiens, UniProt P21452); experiment: Neurokinin receptor binding assay, NK2 ([3H]-Neurokinin A); conditions: for inhibition at 1 µM: read-out: % Inhibition NK2 (1 μM dose)
T1 construct: expressed in transfected cells; host or cells: Chinese hamster ovary (CHO) cells, membranes
T1 sequence (P21452 1-398): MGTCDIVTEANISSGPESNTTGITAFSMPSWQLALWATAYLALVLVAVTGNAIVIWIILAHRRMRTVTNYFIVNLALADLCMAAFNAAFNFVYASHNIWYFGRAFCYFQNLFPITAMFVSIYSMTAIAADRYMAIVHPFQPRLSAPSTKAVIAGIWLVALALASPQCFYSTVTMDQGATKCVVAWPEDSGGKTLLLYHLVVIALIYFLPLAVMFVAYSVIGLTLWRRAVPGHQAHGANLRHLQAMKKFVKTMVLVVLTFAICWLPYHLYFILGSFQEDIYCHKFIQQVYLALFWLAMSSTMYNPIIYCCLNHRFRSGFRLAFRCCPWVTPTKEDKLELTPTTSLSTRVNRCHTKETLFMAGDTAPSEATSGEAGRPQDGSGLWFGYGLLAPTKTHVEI
Method: (§1) Chinese Hamster ovary (CHO) cells transfected with the coding regions for the human neurokinin 1 (NK1) of the human neurokinin 2 (NK2) receptors are grown in Dulbecco's minimal essential medium supplemented with 10% fetal calf serum, 0.1 mM non-essential amino acids, 2 mM glutamine, 100 units/ml of penicillin and streptomycin, and 0.8 mg of G418/ml at 37° C. in a humidified atmosphere containing 5% CO2.
(§2) Cells are detached from T-175 flasks with a sterile solution containing 5 mM EDTA in phosphate buffered saline. Cells are harvested by centrifugation and washed in RPMI media at […] for 5 minutes. The pellet is resuspended in Tris-HCl (pH7.4) containing 1 μM phsphoramidon and 4 ug/ml of chymostatin at a cell density of 30×10^6 cells/ml. The suspension is then homogenized in a Brinkman Polytron (setting 5) for 30-45 seconds. The homogenate is centrifuged at 800×g for 5 min at 4° C. to collect unbroken cells and nuclei. The supernatant is centrifuged in a Sorvall RC5C at 19,000 rpm ([…]) for 30 min at 4° C. The pellet is resuspended, an aliquot is removed for a protein determination (BCA) and washed again. The resulting pellet is stored at -80° C.
(§3) To assay receptor binding, 50 μl of [^3 H]-Substance P (9-Sar, 11-Met) (specific activity 41 Ci/mmol) (Dupont-NEN) (0.8 nM for the NK-1 assay) or [^3 H]-Neurokinin A (specific activity 114 Ci/mmole) (Zenca) (1.0 nM for the NK-2 assay) is added to tubes containing buffer (50 mM Tris-HCl (pH 7.4) with 1 mM MnCl2 and 0.2% Bovine Serum Albumin) and either DMSO or test compound. Binding is initiated by the addition of 100 μl of membrane (10-20 μg) containing the human NK-1 or NK-2 receptor in a final volume of 200 μl. After 40 minutes at room temperature, the reaction is stopped by rapid filtration onto Whatman GF/C filters which have been presoaked in 0.3% polyethyleneimine. Filters are washed 2 times with 3 ml of 50 mM Tris-HCl (pH7.4). Filters are added to 6 mls of Ready-Safe liquid scintillation cocktail and quantified by liquid scintillation spectrometry in a LKB 1219 RackBeta counter. Non-specific binding is determined by the addition of either 1 μM of CP-99994 (NK-1) or 1 μM SR-48968 (NK-2) (both synthesized by the chemistry department of Schering-Plough Research Institute). IC50 values are determined from competition binding curves and Ki values are determined according to Cheng and Prusoff using the experimentally determined value of 0.8 nM for the NK-1 receptor and 2.4 nM for the NK-2 receptor.
(§4) % Inhibition is the difference between the percent of maximum specific binding (MSB) and 100%. The percent of MSB is defined by the following equation, wherein "dpm" is disintegrations per minute: [formula]

[2] = target: T2, human neurokinin 1 (NK1) receptor (Homo sapiens, UniProt P25103); experiment: Neurokinin receptor binding assay, NK1 ([3H]-Substance P); conditions: for inhibition at 1 µM: read-out: % Inhibition NK1 (1 μM dose)
T2 construct: expressed in transfected cells; host or cells: Chinese hamster ovary (CHO) cells, membranes
T2 sequence (P25103 whole entry): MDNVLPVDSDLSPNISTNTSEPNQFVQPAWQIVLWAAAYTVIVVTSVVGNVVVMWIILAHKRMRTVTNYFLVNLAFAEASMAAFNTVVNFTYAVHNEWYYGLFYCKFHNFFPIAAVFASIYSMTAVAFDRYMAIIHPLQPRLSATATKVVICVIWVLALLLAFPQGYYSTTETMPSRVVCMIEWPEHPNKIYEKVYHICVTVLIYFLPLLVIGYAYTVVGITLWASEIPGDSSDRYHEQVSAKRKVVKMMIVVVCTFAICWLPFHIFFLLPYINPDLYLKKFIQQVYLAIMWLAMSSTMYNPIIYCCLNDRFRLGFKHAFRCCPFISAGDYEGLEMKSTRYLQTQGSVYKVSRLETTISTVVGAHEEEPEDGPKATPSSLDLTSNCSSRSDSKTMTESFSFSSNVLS
Method: as §1, §2, §3, §4

[3] = CHO membranes, human NK-2 receptor, [3H]-Neurokinin A 1.0 nM, Cheng-Prusoff, read-out: Ki (NK2)
[4] = CHO membranes, human NK-1 receptor, [3H]-Substance P 0.8 nM, Cheng-Prusoff, read-out: Ki (NK1)

pKi [1, 3]	pKi [2, 4]	SMILES	inhibition at 1 µM [1]	pKi [1]	pKi [2]	inhibition at 1 µM [2]
		COc1cc(C(=O)N(C)CC(CCN(C)CCc2c[nH]c3ccc(F)cc23)c2ccc(Cl)c(Cl)c2)cc(OC)c1OC (racemic) [Example 7c]	100%			
6.66	7.72	COc1cc(C(=O)N(C)CC(CCN(C)CCCc2c[nH]c3ccccc23)c2ccc(Cl)c(Cl)c2)cc(OC)c1OC (stereo not shown) [Example 7b]				
7.52	6.63	COc1cc(C(=O)N(C)CC(CCN[C@@H](Cc2c[nH]c3ccccc23)C(=O)O)c2ccc(Cl)c(Cl)c2)cc(OC)c1OC (stereo partly shown) [Example 7d]				
		Cc1cc(C(=O)N(C)CC(CCN(C)CCc2c[nH]c3ccccc23)c2ccc(Cl)c(Cl)c2)cc(Cl)n1 (stereo not shown) [Example 12c]	93%	7.41	6.99	82%
		CN(CCc1c[nH]c2ccccc12)CCC1(c2ccc(Cl)c(Cl)c2)CCN(C(=O)c2cc(C(F)(F)F)cc(C(F)(F)F)c2)C1 (stereo not shown) [Example 14b]	88%	6.84	7.68	81%
